Assay results: patent US12398139B2, “Modulators of AMPA receptor signaling” (Centre for Addiction and Mental Health, priority 2019, dated 2025)
Counter-ions that a name gives are not always drawn.

Tests used:
GluR2/GAPDH complex = biological target: T1, GluR2/GAPDH complex (Homo sapiens, UniProt P42262); assay: Surface plasmon resonance target engagement assay (competitive GluR2-Venus affinity with GAPDH); details: SPR, captured GluR2-VENUS, 100 nM GAPDH peptide, compound top concentration 10 μM; read-out: Potency, GluR2 Binding Affinity (competitive inhibition of GluR2-GAPDH interaction)
T1 construct: host or cells: HEK293 cells stably transfected with GluR2-VENUS (lysate)
Experimental: This is one of the most commonly used techniques to study modulation of protein-protein interactions by small molecule ligands, providing real-time measurement of binding affinities and association/dissociation kinetics of complexes (compound/protein) in a label-free environment. The ability of our lead compound to disrupt the interaction of GluR2/GAPDH complex was measured by the binding affinity. Compounds were analyzed for competitive GluR2-Venus protein affinity (with GAPDH recombinant protein) using a Reichert 2SPR system. The surface was first charged with nickel (500 μM NiCl2 in HBS-P buffer for 300 s at a flow rate of 5 μL/min). The dextran surface was then activated with a 1:1 mixture of N-ethyl-N-dimethylaminopropylcarbodiimide (EDC) and N-hydroxysuccinimide (NHS) on line for final concentrations of EDC and NHS of 37.5 mg/mL and 5.8 mg/mL, respectively, for 420 s at a flow rate of 25 μL/min. Anti-VENUS antibody was first immobilized by capture onto a 500 KDa CM Dextran sensor chip (Reichert), proceeded by activation of the carboxymethylated dextran surface for mild amine coupling, followed by a final blocking injection of 1 M ethanolamine, pH 8.5. GluR2-VENUS (lysate of HEK293 cells stably transfected with GluR2-VENUS) was then captured for 900 s at a flow rate of 25 μL/min followed by a final blocking injection of 2% BSA, for 300 s at a flow rate of 5 μL/min.
The surface plasmon resonance affinity assay was carried out in a PBS buffer consisting of 0.05% Tween 20. For affinity measurements, compound solutions were prepared using ten three-fold serial dilutions in running buffer from a 10 μM top concentration (prepared from DMSO stocks) along with a zero (running buffer) control, mixed with 100 nM GAPDH peptide (Sigma Aldrich). A flow rate of 30 μl/min was used with a 420 s contact time (using high performance injection parameters) followed by a 120 s dissociation phase. Results were analyzed by subtracting the signals of the reference surface from the signals for the protein-bound surfaces and performing a solvent correction. Competitive binding responses were normalized throughout the screen to the percentage of inhibition of the respective small molecule compound. Three independent experiments were performed.
The binding affinity was measured using the surface plasmon resonance assay described above.

[1] = tested on: HEK-293 cells expressing GAPDH and GluR2; assay: AMPA mediated cell-death assay (CellTox Green Cytotoxicity Assay); format: cell-based; details: Homo sapiens, HEK293, AMPA 500 μM, CTZ 100 μM, CellTox Green fluorescence, read-out: Potency, inhibition of AMPA-mediated neurotoxicity (IC50, concentration at which 50% of cell death was prevented)
Experimental: The ability of compounds to inhibit AMPA-mediated neurotoxicity was determined using the CellTox™ Green Cytotoxicity Assay (G8743) kit from Promega. In this assay, GAPDH and GluR2 are expressed in HEK-293 cells. AMPA (500 μM) was added to induce an AMPAR-mediated cell death signalling cascade. This is initiated by the GAPDH-GluR2 complex formation followed by the nuclear translocation of the complex, where it activates the p53-mediated cell death pathway. The presence of a compound which can block dimerization of GAPDH and GluR2 will prevent the nuclear translocation and the cell death and, thus this assay is an effective measure of the ability of a compound to prevent AMPA-mediated neurotoxicity and thus show therapeutic benefit in the treatment of MS.
The assay was performed as per the manufacture's instruction. Briefly, 293 cells stably expressing GluR1 and GluR2VENUS were transfected with pcDNA-RluC-GAPDH. AMPA (500 μM) were added to induce the cell death. CTZ (100 μM) was added to prevent AMPAR desensitization. Candidate molecules were added before the AMPA treatment to test its protective effect. Untreated cells and AMPA treated group were used as negative and positive control respectively. CellTox™ Green Reagent (˜5×) was then added to achieve a final concentration of 1× and cells were incubated at room temperature for 15 minutes (shielded from ambient light). The fluorescence intensity at 485-500 nmEx/520-530 nmEm was then measured and calculated as the percentage value of the positive control. The concentration at which 50% of cell death was prevented (IC50) was determined for each compound.
The potency was measured using the cell death assay described above.

T1 sequence (P42262 25-883, species assumed, one chain of several): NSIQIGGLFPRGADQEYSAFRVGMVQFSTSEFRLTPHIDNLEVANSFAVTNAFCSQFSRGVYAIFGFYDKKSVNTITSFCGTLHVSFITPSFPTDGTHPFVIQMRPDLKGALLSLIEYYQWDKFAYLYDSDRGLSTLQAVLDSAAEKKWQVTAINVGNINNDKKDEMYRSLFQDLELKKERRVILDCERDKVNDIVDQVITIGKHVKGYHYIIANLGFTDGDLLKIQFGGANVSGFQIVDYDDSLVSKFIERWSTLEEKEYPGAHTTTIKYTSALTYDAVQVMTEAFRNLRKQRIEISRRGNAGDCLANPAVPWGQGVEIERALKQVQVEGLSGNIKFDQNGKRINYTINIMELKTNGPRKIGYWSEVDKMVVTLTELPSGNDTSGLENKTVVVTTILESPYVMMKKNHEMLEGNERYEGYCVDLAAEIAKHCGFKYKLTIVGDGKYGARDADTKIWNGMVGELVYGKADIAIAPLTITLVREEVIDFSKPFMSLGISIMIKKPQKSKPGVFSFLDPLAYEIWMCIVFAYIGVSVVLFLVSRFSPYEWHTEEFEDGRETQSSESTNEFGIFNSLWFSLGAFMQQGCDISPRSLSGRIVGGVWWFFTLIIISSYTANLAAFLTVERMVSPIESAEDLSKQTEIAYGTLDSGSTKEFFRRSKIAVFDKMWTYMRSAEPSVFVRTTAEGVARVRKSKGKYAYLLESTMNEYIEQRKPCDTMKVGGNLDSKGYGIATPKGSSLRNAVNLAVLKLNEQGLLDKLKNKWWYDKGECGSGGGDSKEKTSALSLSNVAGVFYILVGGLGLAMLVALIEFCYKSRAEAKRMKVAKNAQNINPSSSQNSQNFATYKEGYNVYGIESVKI

| IC50 (GluR2/GAPDH complex) | Compound | IC50 [1] |
| --- | --- | --- |
| 99 nM | O=C(NC1CCCCC1)c1ccnc(N2Cc3cn(Cc4ccc(F)cc4)nc3C2)n1 [Compound 209, N-Cyclohexyl-2-(2-(4-fluorobenzyl)-2,6-dihydropyrrolo[3,4-c]pyrazol-5(4H)-yl)pyrimidine-4-carboxamide] | 66 nM |
| 34 nM | O=C(c1ccnc(N2Cc3cn(Cc4ccc(F)cc4)nc3C2)n1)N1CCOCC1 [Compound 211, (2-(2-(4-Fluorobenzyl)-2,6-dihydropyrrolo[3,4-c]pyrazol-5(4H)-yl)pyrimidin-4-yl)(morpholino)methanone] | 44 nM |
| 31 nM | CN1CCN(C(=O)c2ccnc(N3Cc4cn(Cc5ccc(F)cc5)nc4C3)n2)CC1 [Compound 212, (2-(2-(4-Fluorobenzyl)-2,6-dihydropyrrolo[3,4-c]pyrazol-5(4H)-yl)pyrimidin-4-yl)(4-methylpiperazin-1-yl)methanone] | 20 nM |
| 20 nM | O=C(NC1CCCC1)c1ccnc(N2Cc3cn(Cc4ccc(F)cc4)nc3C2)n1 [Compound 213] | 24 nM |
| 24 nM | O=C(NC1CCCCC1)c1cncc(N2Cc3cn(Cc4ccc(F)cc4)nc3C2)n1 [Compound 214, N-Cyclohexyl-6-(2-(4-fluorobenzyl)-2,6-dihydropyrrolo[3,4-c]pyrazol-5(4H)-yl)pyrazine-2-carboxamide] | 46 nM |
| 48 nM | O=C(NC1CCCC1)c1cccc(N2Cc3cn(Cc4ccc(F)cc4)nc3C2)c1 [Compound 215, N-Cyclopentyl-3-(2-(4-fluorobenzyl)-2,6-dihydropyrrolo[3,4-c]pyrazol-5(4H)-yl)benzamide] | 3.5 nM |
| 67 nM | CN(C)C(=O)c1cccc(N2Cc3cn(Cc4ccc(F)cc4)nc3C2)c1 [Compound 217, 3-(2-(4-Fluorobenzyl)-2,6-dihydropyrrolo[3,4-c]pyrazol-5(4H)-yl)-N,N-dimethylbenzamide] | 6.7 nM |
| 99 nM | CN1CCN(C(=O)c2cccc(N3Cc4cn(Cc5ccc(F)cc5)nc4C3)c2)CC1 [Compound 218, (3-(2-(4-Fluorobenzyl)-2,6-dihydropyrrolo[3,4-c]pyrazol-5(4H)-yl)phenyl)(4-methylpiperazin-1-yl)methanone] | 33 nM |
| 14 nM | O=C(NCC(F)(F)F)c1cccc(N2Cc3cn(Cc4ccc(F)cc4)nc3C2)c1 [Compound 219, 3-(2-(4-Fluorobenzyl)-2,6-dihydropyrrolo[3,4-c]pyrazol-5(4H)-yl)-N-(2,2,2-trifluoroethyl)benzamide] | 28 nM |
| 85 nM | O=C(c1cccc(N2Cc3cn(Cc4ccc(F)cc4)nc3C2)c1)N1CCNCC1 [Compound 220, (3-(2-(4-Fluorobenzyl)-2,6-dihydropyrrolo[3,4-c]pyrazol-5(4H)-yl)phenyl)(piperazin-1-yl)methanone hydrochloride] | 15 nM |
| 86 nM | CCN(CC)C(=O)c1cncc(N2Cc3cn(Cc4ccc(F)cc4)nc3C2)n1 [Compound 231, N,N-Diethyl-6-(2-(4-fluorobenzyl)-2,6-dihydropyrrolo[3,4-c]pyrazol-5(4H)-yl)pyrazine-2-carboxamide] | 250 nM |
| 88 nM | COc1ccc(Cn2cc3c(n2)CN(c2cncc(C(=O)N(C)C)n2)C3)cc1 [Compound 232, 6-(2-(4-Methoxybenzyl)-2,6-dihydropyrrolo[3,4-c]pyrazol-5(4H)-yl)-N,N-dimethylpyrazine-2-carboxamide] | 54 nM |
| 33 nM | COc1ccc(Cn2cc3c(n2)CN(c2cccc(C(=O)N(C)C)c2)C3)cc1 [Compound 233, 3-(2-(4-Methoxybenzyl)-2,6-dihydropyrrolo[3,4-c]pyrazol-5(4H)-yl)-N,N-dimethylbenzamide] | 62 nM |
| 139 nM | Cc1ccc(Cn2cc3c(n2)CN(c2cncc(C(=O)N(C)C)n2)C3)cc1 [Compound 234, N,N-Dimethyl-6-(2-(4-methylbenzyl)-2,6-dihydropyrrolo[3,4-c]pyrazol-5(4H)-yl)pyrazine-2-carboxamide] | 114 nM |
| 1070 nM | Cc1ccc(Cn2cc3c(n2)CN(c2cccc(C(=O)N(C)C)c2)C3)cc1 [Compound 235, N,N-Dimethyl-3-(2-(4-methylbenzyl)-2,6-dihydropyrrolo[3,4-c]pyrazol-5(4H)-yl)benzamide] | 656 nM |
| 275 nM | CN(C)C(=O)c1cncc(N2Cc3cn(Cc4cccc(F)c4)nc3C2)n1 [Compound 236, 6-(2-(3-Fluorobenzyl)-2,6-dihydropyrrolo[3,4-c]pyrazol-5(4H)-yl)-N,N-dimethylpyrazine-2-carboxamide] | 5000 nM |
| 30 nM | CN(C)C(=O)c1cccc(N2Cc3cn(Cc4cccc(F)c4)nc3C2)c1 [Compound 237, 3-(2-(3-Fluorobenzyl)-2,6-dihydropyrrolo[3,4-c]pyrazol-5(4H)-yl)-N,N-dimethylbenzamide] | 47 nM |
| 102 nM | CN(C)C(=O)c1cncc(N2Cc3cn(CC4CCCCC4)nc3C2)n1 [Compound 238, 6-(2-(Cyclohexylmethyl)-2,6-dihydropyrrolo[3,4-c]pyrazol-5(4H)-yl)-N,N-dimethylpyrazine-2-carboxamide] | 167 nM |
| 41 nM | CN(C)C(=O)c1cccc(N2Cc3cn(CC4CCCCC4)nc3C2)c1 [Compound 239, 3-(2-(Cyclohexylmethyl)-2,6-dihydropyrrolo[3,4-c]pyrazol-5(4H)-yl)-N,N-dimethylbenzamide] | 26 nM |
| 26 nM | N#Cc1cccc(N2Cc3cn(Cc4ccc(F)cc4)nc3C2)c1 [Compound 240, 3-(2-(4-Fluorobenzyl)-2,6-dihydropyrrolo[3,4-c]pyrazol-5(4H)-yl)benzonitrile] | 35 nM |
| 20 nM | N#Cc1ccnc(N2Cc3cn(Cc4ccc(F)cc4)nc3C2)n1 [Compound 241, 2-(2-(4-Fluorobenzyl)-2,6-dihydropyrrolo[3,4-c]pyrazol-5(4H)-yl)pyrimidine-4-carbonitrile] | 72 nM |
| 130 nM | O=C(c1cccc(N2Cc3cn(Cc4ccc(F)cc4)nc3C2)c1)N1CCCC1 [Compound 243, (3-(2-(4-Fluorobenzyl)-2,6-dihydropyrrolo[3,4-c]pyrazol-5(4H)-yl)phenyl)(pyrrolidin-1-yl)methanone] | 1150 nM |
| 2.4 nM | O=C(c1ccnc(N2Cc3cn(Cc4ccc(F)cc4)nc3C2)n1)N1CCCCC1 [Compound 244, (2-(2-(4-Fluorobenzyl)-2,6-dihydropyrrolo[3,4-c]pyrazol-5(4H)-yl)pyrimidin-4-yl)(piperidin-1-yl)methanone] | 2.4 nM |
| 206 nM | N#Cc1cncc(N2Cc3cn(Cc4ccc(F)cc4)nc3C2)n1 [Compound 245, 6-(2-(4-Fluorobenzyl)-2,6-dihydropyrrolo[3,4-c]pyrazol-5(4H)-yl)pyrazine-2-carbonitrile] | 771 nM |
| 440 nM | CN(C)C(=O)c1ccc(N2Cc3cn(Cc4ccc(F)cc4)nc3C2)cc1 [Compound 246, 4-(2-(4-Fluorobenzyl)-2,6-dihydropyrrolo[3,4-c]pyrazol-5(4H)-yl)-N,N-dimethylbenzamide] | 8.6 nM |
